Patent US20240368151A1, “NOVEL ERGOLINES AND METHODS OF TREATING MOOD DISORDERS” (priority 2021, published 2024)
Read-outs that look alike come from different tables or passages of the source.

Tests used:
[1] = Metabolic stability in human liver microsomes (HLM); assay type: in vitro ADME; conditions: for half-life at 1 μM: both sexes, human, pooled human liver microsomes, pH 7.4, NADPH
Source text: HLM Stability. Pooled HLM from adult male and female donors (Corning 452117) were used.

5-HT2B receptor = 5-HT2B receptor (Homo sapiens (Human), UniProt P41595); assay: FLIPR Ca^2+ flux agonist assay at 5-HT2B; assay type: cell-based; conditions: HEK293
Sequence of 5-HT2B receptor (P41595 whole entry, looked up): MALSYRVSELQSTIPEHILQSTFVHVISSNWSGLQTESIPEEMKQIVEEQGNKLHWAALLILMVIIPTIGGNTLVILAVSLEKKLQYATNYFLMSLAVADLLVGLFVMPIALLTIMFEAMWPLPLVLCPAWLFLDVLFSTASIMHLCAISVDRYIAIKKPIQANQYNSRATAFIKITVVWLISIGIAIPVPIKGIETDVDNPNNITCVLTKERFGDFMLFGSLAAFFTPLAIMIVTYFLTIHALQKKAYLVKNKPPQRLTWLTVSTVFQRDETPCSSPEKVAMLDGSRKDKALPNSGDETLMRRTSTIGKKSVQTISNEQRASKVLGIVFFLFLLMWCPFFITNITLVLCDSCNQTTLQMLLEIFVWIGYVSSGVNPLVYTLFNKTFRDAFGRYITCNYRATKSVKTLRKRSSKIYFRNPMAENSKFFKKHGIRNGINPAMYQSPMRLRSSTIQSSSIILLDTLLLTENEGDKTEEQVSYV
Method: (§1) Functional Assays at 5-HT2A, 5-HT2B, and 5-HT1A. Agonist activity at 5-HT2A, 5-HT2B, and 5-HT1A receptors was determined using a FLIPR Ca^2+ flux assay at WuXi AppTec (Hong Kong) Limited according to their standard protocols. Briefly, stably transfected cells expressing the receptor of interest (HEK293 for 5-HT2A and 5-HT2B; CHO cells for 5-HT1A) were grown and plated in a 384 well plate and incubated at 37° C. and 5% CO2 overnight. A solution of 250 mM probenecid in 1 mL FLIPR assay buffer was prepared fresh. This was combined with a fluorescent dye (Fluo-4 Direct™) to make a final assay concentration of 2.5 mM. […] The fluorescent dye was then added to the assay plate along with assay buffer to a final volume of 40 μL. The cell plate was incubated for 50 min at 37° C. and 5% CO2 and placed into the FLIPR Tetra along with the compound plate. 10p L of references and compounds were then transferred from the compound plate into the cell plate and the fluorescent signal was read.

5-HT2A receptor [2] = molecular target: T1, 5-HT2A receptor (Homo sapiens (Human), UniProt P28223); assay type: cell-based; conditions: Ca^2+ flux, HEK293
Method: as §1

[3] = Metabolic stability in rat liver microsomes (RLM); assay type: in vitro ADME; conditions: for half-life at 1 μM: both sexes, rat, pooled rat liver microsomes, pH 7.4, NADPH
5-HT2A receptor [4] = molecular target: T1, 5-HT2A receptor; assay type: cell-based; conditions: beta-arrestin recruitment
Method: The degree of arrestin bias varied substantially across the other compounds tested as well.
Arrestin Functional Assay at 5-HT2A. Recruitment of beta-arrestin was determined using a PathHunter assay at Eurofins DiscoverX (Fremont, CA) according to their standard protocols. PathHunter GPCR beta-arrestin assays take advantage of DiscoverX's proprietary Enzyme Fragment Complementation technology. The GPCR is fused in frame with a small enzyme donor fragment ProLink™ (PK) and co-expressed in cells stably expressing a fusion protein of beta-arrestin and the larger, N-terminal deletion mutant of beta-galactosidase. Activation of the GPCR (5-HT2A receptor in this case) stimulates binding of beta-arrestin to the PK-tagged GPCR and forces complementation of the two enzyme fragments, resulting in the formation of an active beta-galactosidase enzyme. This interaction leads to an increase in enzyme activity that can be measured using chemiluminescent PathHunter Detection Reagents. Briefly, PathHunter cells expressing 5-HT2A receptors were seeded in a volume of 20 μL into 384-well plates and incubated at 37° C. for the appropriate time prior to testing. […] Plates were then imaged on a microplate reader and the agonist activity was calculated using the following formula: % Activity=100%×(mean RLU of test sample−mean RLU of vehicle control)/(mean MAX control ligand−mean RLU of vehicle control), where RLU=relative light units.

[5] = Metabolic stability in mouse liver microsomes (MLM); assay type: in vitro ADME; conditions: NADPH; for half-life at 1 μM: mouse, pooled mouse liver microsomes, pH 7.4, MLM (CD-1)
Source text: MLM Stability Pooled MLM from CD-1 mice (BIOIVT M00501) were used.

5-HT1A receptor = 5-HT1A receptor (Homo sapiens (Human), UniProt P08908); assay: FLIPR Ca^2+ flux agonist assay at 5-HT1A; assay type: cell-based; conditions: CHO cells
Method: as §1

human 5-HT2C receptor = human 5-HT2C receptor (Homo sapiens (Human), UniProt P28335); assay type: cell-based
Sequence of human 5-HT2C receptor (P28335 33-458 limits assumed): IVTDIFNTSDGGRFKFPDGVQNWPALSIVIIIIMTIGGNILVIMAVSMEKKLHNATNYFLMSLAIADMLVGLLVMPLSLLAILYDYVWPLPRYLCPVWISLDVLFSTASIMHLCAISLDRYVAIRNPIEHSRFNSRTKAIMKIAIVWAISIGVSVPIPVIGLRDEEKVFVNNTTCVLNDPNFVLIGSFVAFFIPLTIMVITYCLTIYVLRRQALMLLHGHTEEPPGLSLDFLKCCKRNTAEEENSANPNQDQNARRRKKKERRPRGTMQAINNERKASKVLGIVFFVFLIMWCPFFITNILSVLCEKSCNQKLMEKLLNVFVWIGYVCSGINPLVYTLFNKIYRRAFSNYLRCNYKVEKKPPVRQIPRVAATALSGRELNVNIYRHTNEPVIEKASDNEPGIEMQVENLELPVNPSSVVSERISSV

C57BL/6 mice = assay: Mouse head twitch response (HTR) assay; assay type: in vivo; conditions: mouse HTR, SC; for # HTR at Most Efficacious Dose / Emax (95% CI): 20 min observation; for Emax (95% CI): curve fit
Method: Agonists of the 5-HT2A receptor are well known to induce this effect in rodents and the potency of this HTR is correlated with hallucinogenic potency in humans.
Animals. Adult male C57BL/6 mice, aged 6-8 weeks (body weight 20-25 g) were used in this experiment. Animals were housed under controlled temperatures and 12-hour light/dark cycles (lights on between 07:00-19:00 h), with ad libitum food and water. This study was carried out in strict accordance with the requirements of the Committee for the Purpose of Control and Supervision of Experiments on Animals (CPCSEA), India. All efforts were made to minimize suffering.
Drugs and Drug Administration. Compound 1 was synthesized as described above. It was administered subcutaneously (SC) dissolved in saline vehicle at a volume of 10 mL/kg. Five doses were tested, with n=6 animals/group. Doses were calculated on the basis of the freebase.
Procedure. Mice were administered one dose of the drug and immediately placed into a small open field for behavioral observation. Animals were observed continuously for 20 mins and the number of head twitches (HTs) were counted by an observer blind to the treatment condition.
Statistical Analysis. The data points shown are the mean±standard error of the mean (SEM). Analysis was performed using GraphPad Prism 6. Curves were fit using a non-linear gaussian distribution to calculate ED50 and Emax values.
Additional disclosed compounds were tested in the mouse head twitch response (HTR) assay according to the procedure described in Example 34. […] Lastly, compounds with much larger benzyl and phenethyl substituents on the amine nitrogen (e.g., 10 and 11) were low efficacy in this assay, consistent with their lower maximal efficacy in the arrestin functional assay (see Example 32).

| SMILES | half-life at 1 μM [1] [min] | 5-HT2B % Act @ Max Dose (5-HT2B receptor) [%] | 5-HT2A % Act @ Max Dose (5-HT2A receptor [2]) [%] | half-life at 1 μM [3] [min] | 5-HT2A Arrestin % Act @ Max Dose (5-HT2A receptor [4]) [%] | half-life at 1 μM [5] [min] | 5-HT1A % Act @ Max Dose (5-HT1A receptor) [%] | 5-HT2C % Act @ Max Dose (human 5-HT2C receptor; Ca^2+ flux) [%] | Clint ([1]; 1 μM, NADPH) [µL/min/mg] | t1/2 ([1]; 1 μM, NADPH) [min] | Clint ([3]; 1 μM, NADPH) [µL/min/mg] | t1/2 ([3]; 1 μM, NADPH) [min] | agonist type in the 5-HT2A arrestin recruitment assay, in words (5-HT2A receptor [4]) | Clint ([5]; MLM (CD-1), 1 μM) [µL/min/mg] | t1/2 ([5]; MLM (CD-1), 1 μM) [min] | Most Efficacious Dose (C57BL/6 mice) | # HTR at Most Efficacious Dose (C57BL/6 mice) | Emax (95% CI) (C57BL/6 mice) | 5-HT2C % Act @ Max Dose (human 5-HT2C receptor) [%] |
| --- | --- | --- | --- | --- | --- | --- | --- | --- | --- | --- | --- | --- | --- | --- | --- | --- | --- | --- | --- |
| C=CCN1C[C@@H](C(=O)N[C@H](C)CC)C=C2c3cccc4[nH]cc(c34)C[C@H]21 [Compound 8a, (6aR,9S)-7-allyl-N-((R)-sec-butyl)-4,6,6a,7,8,9-hexahydroindolo[4,3-fg]quinoline-9-carboxamide] | 3.4 | 35.71 | 87.45 | 1.7 | 81.117 | 0.8 | 90.34 | 13.314 |  |  |  |  |  |  |  |  |  |  |  |
| CC[C@@H](C)NC(=O)[C@@H]1C=C2c3cccc4[nH]cc(c34)C[C@H]2N(CC)C1 [Compound 5] |  | 84.77 | 102.81 |  | 105.72 |  | 107.87 |  | 62.3 | 22.2 | 72.0 | 19.3 | full agonists | 170.4 | 8.1 | (0.32 mg/kg) | 17.667 | 15.22 | 114.5 |
| CCC(CC)NC(=O)[C@H]1C=C2c3cccc4[nH]cc(c34)C[C@H]2N(C)C1 [Int14a, (6aR,9S)-7-methyl-N-(pentan-3-yl)-4,6,6a,7,8,9-hexahydroindolo[4,3-fg]quinoline-9-carboxamide] | 3.35 | 1.86 | 32.98 | 1.8 | 44.321 | 1.7 | 70.27 | 119.28 |  |  |  |  |  |  |  |  |  |  |  |
| CCCN1C[C@@H](C(=O)N[C@H](C)CC)C=C2c3cccc4[nH]cc(c34)C[C@H]21 [Compound 3a, (6aR,9S)-N-((R)-sec-butyl)-7-propyl-4,6,6a,7,8,9-hexahydroindolo[4,3-fg]quinoline-9-carboxamide] | 2.2 | 52.81 | 92.04 | 1.4 | 112.91 | 0.6 | 108.14 | 108.705 |  |  |  |  |  |  |  |  |  |  |  |
| CCN(CC)C(=O)[C@H]1C=C2c3cccc4[nH]cc(c34)C[C@H]2N(CCCF)C1 [Compound 2a, (6aR,9S)-N,N-diethyl-7-(3-fluoropropyl)-4,6,6a,7,8,9-hexahydroindolo[4,3-fg]quinoline-9-carboxamide] | 17 | 40.13 | 90.29 | 9.67 | 83.328 | 1.78 | 96.77 | 118.85 |  |  |  |  |  |  |  |  |  |  |  |
| CC[C@@H](C)NC(=O)[C@H]1C=C2c3cccc4[nH]cc(c34)C[C@H]2N(C)C1 [Int8a, (6aR,9S)-N-((R)-sec-butyl)-7-methyl-4,6,6a,7,8,9-hexahydroindolo[4,3-fg]quinoline-9-carboxamide] | 11.1 | 6.87 | 72.6 | 3.5 | 35.52 | 1.6 | 103.65 | 93.73 |  |  |  |  |  |  |  |  |  |  |  |
| C[C@H]1C[C@H](C)N1C(=O)[C@@H]1C=C2c3cccc4[nH]cc(c34)C[C@H]2N(C)C1 [Int11, ((2S,4S)-2,4-dimethylazetidin-1-yl)((6aR, 9R)-7-methyl-4,6,6a,7,8,9-hexahydroindolo[4,3-fg]quinolin-9-yl)methanone] | 25.7 | 38.15 | 110.03 | 54.9 | 49.269 | 13.9 | 89.9 |  |  |  |  |  | partial agonists |  |  | (0.1 mg/kg) | 10.667 | 10.93 |  |
| CC[C@@H](C)NC(=O)[C@H]1C=C2c3cccc4[nH]cc(c34)C[C@H]2N(CC)C1 [Compound 5a, (6aR,9S)-N-((R)-sec-butyl)-7-ethyl-4,6,6a,7,8,9-hexahydroindolo[4,3-fg]quinoline-9-carboxamide] | 5.5 | 43.7 | 89.59 | 3.1 | 62.444 | 1.7 | 111.65 | 99.4405 |  |  |  |  |  |  |  |  |  |  |  |
| CCC[C@@H](C)NC(=O)[C@H]1C=C2c3cccc4[nH]cc(c34)C[C@H]2N(C)C1 [Int17a, (6aR,9S)-7-methyl-N-((R)-pentan-2-yl)-4,6,6a,7,8,9-hexahydroindolo[4,3-fg]quinoline-9-carboxamide] | 4.58 | 5.63 | 63.31 | 1.96 | 43.729 | 1.58 | 88.52 | 112.06 |  |  |  |  |  |  |  |  |  |  |  |
